# Assays:
# HepG2 [1] = assay: Induction of apoptosis in human HepG2 cells assessed as late apoptotic cells at 2.5 uM incubated for 24 hrs by Annexin-V/PI staining based flow cytometry (Rvb=0.66%); format: functional
# HepG2 [2] = assay: Induction of apoptosis in human HepG2 cells assessed as increase in cleaved caspase-3 level at 0.625 to 2.5 uM incubated for 24 hrs by Western blot analysis; format: functional, cell-based; conditions: dose 0.625-2.5 µM
# HepG2 [3] = assay: Induction of cell cycle arrest in human HepG2 cells assessed as accumulation at G0/G1 phase at 5 uM incubated for 24 hrs by flow cytometry (Rvb= 46.5%); format: functional
# HepG2 [4] = assay: Inhibition of colony formation in human HepG2 cells at 0.625 to 10 uM incubated for 8 days with drug replacement every 2 days by crystal violet staining based imaging analysis; format: functional, cell-based; conditions: dose 0.625-10 µM, time 8.0 day
# HepG2 [5] = assay: Induction of cell cycle arrest in human HepG2 cells assessed as accumulation at G0/G1 phase at 2.5 uM incubated for 24 hrs by flow cytometry (Rvb= 46.5%); format: functional
# HepG2 [6] = assay: Induction of cell cycle arrest in human HepG2 cells assessed as accumulation at S phase at 1.25 uM incubated for 24 hrs by flow cytometry (Rvb= 20.1%); format: functional
# HepG2 [7] = assay: Induction of apoptosis in human HepG2 cells assessed as necrotic cells at 2.5 uM incubated for 24 hrs by Annexin-V/PI staining based flow cytometry (Rvb=0.85%); format: functional
# HepG2 [8] = assay: Induction of cell cycle arrest in human HepG2 cells assessed as accumulation at G2/M phase at 1.25 uM incubated for 24 hrs by flow cytometry (Rvb= 14.05%); format: functional
# HepG2 [9] = assay: Induction of cell cycle arrest in human HepG2 cells assessed as accumulation at S phase at 0.625 uM incubated for 24 hrs by flow cytometry (Rvb= 20.1%); format: functional
# HepG2 [10] = assay: Induction of apoptosis in human HepG2 cells assessed as total apoptotic cells at 5 uM incubated for 24 hrs by Annexin-V/PI staining based flow cytometry (Rvb=5.14%); format: functional
# HepG2 [11] = assay: Induction of apoptosis in human HepG2 cells assessed as late apoptotic cells at 1.25 uM incubated for 24 hrs by Annexin-V/PI staining based flow cytometry (Rvb=0.66%); format: functional
# HepG2 [12] = assay: Induction of apoptosis in human HepG2 cells assessed as increase in p21 level at 0.625 to 2.5 uM incubated for 24 hrs by Western blot analysis; format: functional, cell-based; conditions: dose 0.625-2.5 µM
# HepG2 [13] = assay: Induction of cell cycle arrest in human HepG2 cells assessed as accumulation at S phase at 2.5 uM incubated for 24 hrs by flow cytometry (Rvb= 20.1%); format: functional
# HepG2 [14] = assay: Induction of apoptosis in human HepG2 cells assessed as total apoptotic cells at 0.625 uM incubated for 24 hrs by Annexin-V/PI staining based flow cytometry (Rvb=5.14%); format: functional
# HepG2 [15] = assay: Induction of apoptosis in human HepG2 cells assessed as viable cells at 2.5 uM incubated for 24 hrs by Annexin-V/PI staining based flow cytometry (Rvb=94.0%); format: functional; conditions: read-out: Activity
# HepG2 [16] = assay: Induction of cell cycle arrest in human HepG2 cells assessed as accumulation at G2/M phase at 2.5 uM incubated for 24 hrs by flow cytometry (Rvb= 14.05%); format: functional
# HepG2 [17] = assay: Induction of apoptosis in human HepG2 cells assessed as early apoptotic cells at 0.625 uM incubated for 24 hrs by Annexin-V/PI staining based flow cytometry (Rvb=4.48%); format: functional
# HepG2 [18] = assay: Induction of cell cycle arrest in human HepG2 cells assessed as accumulation at S phase at 5 uM incubated for 24 hrs by flow cytometry (Rvb= 20.1%); format: functional
# HT-29 = assay: Antiproliferative activity against human HT-29 cells assessed as reduction in cell viability incubated for 72 hrs by MTT assay; format: functional, cell-based; conditions: HT-29, 72 h
# HepG2 [19] = assay: Induction of apoptosis in human HepG2 cells assessed as late apoptotic cells at 0.625 uM incubated for 24 hrs by Annexin-V/PI staining based flow cytometry (Rvb=0.66%); format: functional
# HepG2 [20] = assay: Inhibition of colony formation in human HepG2 cells at 10 uM incubated for 8 days with drug replacement every 2 days by crystal violet staining based imaging analysis; format: functional; conditions: HepG2, 192 h, time 8 day
# HepG2 [21] = assay: Antimigratory activity against human HepG2 cells assessed as decrease in Snail expression at 0.625 to 2.5 uM incubated 24 hrs by Western blot analysis; format: functional, cell-based; conditions: dose 0.625-2.5 µM
# HepG2 [22] = assay: Induction of cell cycle arrest in human HepG2 cells assessed as accumulation at G2/M phase at 5 uM incubated for 24 hrs by flow cytometry (Rvb= 14.05%); format: functional
# HepG2 [23] = assay: Induction of apoptosis in human HepG2 cells assessed as viable cells at 1.25 uM incubated for 24 hrs by Annexin-V/PI staining based flow cytometry (Rvb=94.0%); format: functional; conditions: read-out: Activity
# [24] = Cytotoxicity against human GES1 cells assessed as reduction in cell viability incubated for 72 hrs by MTT assay; format: toxicity, cell-based
# HepG2 [25] = assay: Induction of apoptosis in human HepG2 cells assessed as viable cells at 5 uM incubated for 24 hrs by Annexin-V/PI staining based flow cytometry (Rvb=94.0%); format: functional; conditions: read-out: Activity
# HepG2 [26] = assay: Antiproliferative activity against human HepG2 cells assessed as reduction in cell viability incubated for 72 hrs by MTT assay; format: functional, cell-based; conditions: HepG2, 72 h
# HepG2 [27] = assay: Induction of apoptosis in human HepG2 cells assessed as total apoptotic cells at 2.5 uM incubated for 24 hrs by Annexin-V/PI staining based flow cytometry (Rvb=5.14%); format: functional
# HepG2 [28] = assay: Induction of cell cycle arrest in human HepG2 cells assessed as accumulation at G0/G1 phase at 1.25 uM incubated for 24 hrs by flow cytometry (Rvb= 46.5%); format: functional
# HepG2 [29] = assay: Induction of apoptosis in human HepG2 cells assessed as total apoptotic cells at 1.25 uM incubated for 24 hrs by Annexin-V/PI staining based flow cytometry (Rvb=5.14%); format: functional
# HepG2 [30] = assay: Induction of cell cycle arrest in human HepG2 cells assessed as accumulation at G0/G1 phase at 0.625 uM incubated for 24 hrs by flow cytometry (Rvb= 46.5%); format: functional
# HepG2 [31] = assay: Induction of apoptosis in human HepG2 cells assessed as early apoptotic cells at 5 uM incubated for 24 hrs by Annexin-V/PI staining based flow cytometry (Rvb=4.48%); format: functional
# HepG2 [32] = assay: Induction of apoptosis in human HepG2 cells assessed as late apoptotic cells at 5 uM incubated for 24 hrs by Annexin-V/PI staining based flow cytometry (Rvb=0.66%); format: functional
# HepG2 [33] = assay: Induction of apoptosis in human HepG2 cells assessed as necrotic cells at 1.25 uM incubated for 24 hrs by Annexin-V/PI staining based flow cytometry (Rvb=0.85%); format: functional
# HepG2 [34] = assay: Antimigratory activity against human HepG2 cells assessed as increase in E-cadherin expression at 0.625 to 2.5 uM incubated 24 hrs by Western blot analysis; format: functional, cell-based; conditions: dose 0.625-2.5 µM
# HepG2 [35] = assay: Induction of apoptosis in human HepG2 cells assessed as early apoptotic cells at 2.5 uM incubated for 24 hrs by Annexin-V/PI staining based flow cytometry (Rvb=4.48%); format: functional
compound,measurement,setting,value
CC(=O)Nc1ccc(Oc2ccc(F)cc2F)c(-c2ccc3[nH]c(=O)c(C)nc3c2)c1,Activity,HepG2 [1],1.39%
same,Activity,HepG2 [2],Dose-Dependent Effect
same,Activity,HepG2 [3],54.9%
same,inhibition,HepG2 [4],Dose-Dependent Effect
same,Activity,HepG2 [5],53.3%
same,Activity,HepG2 [6],10.2%
same,Activity,HepG2 [7],0.9%
same,Activity,HepG2 [8],22.6%
same,Activity,HepG2 [9],20%
same,Activity,HepG2 [10],11.66%
same,Activity,HepG2 [11],1.37%
same,Activity,HepG2 [12],Dose-Dependent Effect
same,Activity,HepG2 [13],9.5%
same,Activity,HepG2 [14],6.26%
same,viability at 2.5 µM,HepG2 [15],90.6%
same,Activity,HepG2 [16],24.4%
same,Activity,HepG2 [17],5.3%
same,Activity,HepG2 [18],12.4%
same,IC50,HT-29,> 50 µM
same,Activity,HepG2 [19],0.96%
same,inhibition at 10 µM,HepG2 [20],80%
same,Activity,HepG2 [21],Dose-Dependent Effect
same,Activity,HepG2 [22],21%
same,viability at 1.25 µM,HepG2 [23],91.5%
same,IC50 at 72 h,[24],57.2 µM
same,viability at 5 µM,HepG2 [25],87.5%
same,IC50,HepG2 [26],1.13 µM
same,Activity,HepG2 [27],8.61%
same,Activity,HepG2 [28],51%
same,Activity,HepG2 [29],7.66%
same,Activity,HepG2 [30],46.1%
same,Activity,HepG2 [31],10.4%
same,Activity,HepG2 [32],1.26%
same,Activity,HepG2 [33],0.83%
same,Activity,HepG2 [34],Dose-Dependent Effect
same,Activity,HepG2 [35],7.22%

# Reference: ChEMBL document CHEMBL5236660, “Design, synthesis, and biological evaluation of quinoxalinone derivatives as potent BRD4 inhibitors” (Bioorg Med Chem, 2023)
